Measured values taken from US20220339260A1, “METHOD FOR PRODUCING INSULIN-PRODUCING CELL USING DIHYDROINDOLIZINONE DERIVATIVES” (TOKYO INSTITUTE OF TECHNOLOGY, priority 2019, published 2022).

What was measured:
[1] = system: Ff-I01s01; experiment: Differentiation of Ff-I01s01 iPS cells, sphere culture, protocol #2; type: cell-based, human
Procedure: The FfI-01s01 cells were maintained as described above and then differentiated according to protocol #2. Briefly, the cells were dissociated with TrypLE Select, transferred at a concentration of 1×10^6 cells/mL in AK03N medium (Ajinomoto Co., Inc.) to a low-attachment 6-well plate, and cultured for 24 hours on a rotary shaker (95 rpm). Then, the medium was replaced with AK03N-based methionine-depleted medium KA01, and the cells were cultured for 5 hours. Then, the medium was replaced with M1-1 AKM medium, and the cells were cultured for 24 hours (stage 1-1). The cells were cultured for 2 days in M1-2 AKM medium (stage 1-2), subsequently cultured for 2 days in M2 AKM medium (stage 2-1), cultured for 2 days in S2 medium (stage 2-2), cultured for 2 days in S3 medium (stage 3), cultured for 5 days in S4 medium (stage 4), cultured for 4 days in S5-1 medium (stage 5-1), and cultured for 3 days in S5-2 medium (stage 5).
In the case of evaluating the effectiveness of a compound for a differentiation rate and a cell function, a test compound and a negative control ([…]), and immunostaining was carried out on days 14 (at the completion of stage 4) and 21 (at the completion of stage 5) in order to confirm an effect on positivity to insulin, NKX6.1, and PDX1. GSIS assay was carried out on day 21.
Immunocytochemistry was carried out according to a general protocol using the following antibodies: rabbit anti-MAFA (Abcam; ab26405; 1/100×), goat anti-PDX1 (R&D systems; AF2419; 1/100×), mouse anti-NKX6.1 (Developmental Studies Hybridoma Bank, University of Iowa; F64A6B4; 1/100×), guinea pig anti-INSULIN (Dako; IR002; 1/10×), mouse anti-INSULIN (Sigma-Aldrich; 12018; 1/1000×), rabbit anti-C-peptide (Cell Signaling; 4593; 1/100×), rabbit anti-GFP (MBL International Corp; 598; 1/1000×), and mouse anti-GLUCAGON (Sigma-Aldrich; G2654; 1/1000×). […]

[2] = system: Toe human iPS cells; experiment: Differentiation of Toe human iPS cells into iPS-β cells, monolayer culture, protocol #1; type: cell-based; conditions: treatment from later stage of stage 3 to initial stage of stage 5
Procedure: The Toe human iPS cells were seeded in CellBIND 6-well (CORNING, CLS3335) cell culture plate coated with synthemax II, and differentiated into primitive gut tube cells by the previously described method (Shahjalal et al., 2014). The cells were dissociated with TrypLE Select (Thermo Fisher, 12563011) and cryopreserved in BanBanker (Nippon genetics) at a density of 1.0 to 2.0×10^7 cells/mL until use. One day before compound addition, the cells were thawed in a medium for stage 3 (DMEM (high glucose), 0.25 μM SANT1 (Wako, 197-16351), 0.1 μM LDN193189 (Stemgent, 04-0074), 10 μM SB431542, 2 μM retinoic acid, 1% B27-free serum supplement (Life Technologies, 17504044), and seeded at 150,000 cells per well in CellBIND 96-well (Corning, 3340) cell culture plated coated with synthemax II. The cells were cultured for 1 day in a medium for stage 3 containing a test compound or a negative control (0.01% DMSO). The cells were further cultured for 2 days and 1 day in media for stages 4 and 5, respectively, containing the test compound or the negative control. On the next day, the cells were fixed in 4% paraformaldehyde for analysis using a high-content imager.

[3] = system: RPChiPS771 iPSC; experiment: Differentiation of RPChiPS771 iPS cells, sphere culture, protocol #1; type: cell-based, human; conditions: 0.25 μM, methionine depletion 5 hours
Procedure: (§1) The RPChipS771 cells were maintained as described above, and differentiated according to protocol #1. Briefly, on day 0, the cells were dissociated with TrypLE Select, transferred at a concentration of 1×10^6 cells/mL in Essential 8 medium to a low-attachment 6-well plate (Greiner, 657185), and cultured on a rotary shaker (95 rpm). On day 1, the medium was replaced with methionine-depleted medium KA01 (Ajinomoto), and the cells were cultured for 5 hours. The medium was replaced with differentiation medium 1 (DMEM (high glucose), L-Gln, NEAA, 0.01 mM β-mercaptoethanol, 100 ng/mL activin A, B27 supplement, 3 μM CHIR99021), and the cells were cultured for 1 day (stage 1-1). Then, the medium was replaced with medium 1 free from CHIR99021, and the cells were cultured for 2 days (stage 1-2). […]

[4] = system: iPS-β cells (RpChiPSC771); experiment: GSIS function assay of iPS-β cells from sphere culture of RPChiPSC771, protocol #1; type: cell-based, human; conditions: 1 μM, treatment between stages 3 and 4
Procedure: as §1
Batch-mode GSIS assay was carried out as described below. […] The C-peptide concentration of a sample was measured using alphaLISA C-peptide kit (PerkinElmer, AL299F) or C-peptide ELISA and corrected with the DNA content of the cells used in the GSIS assay.

[5] = system: iPS-β cells; experiment: Response of iPS-β cells to insulin secretagogues (c-peptide secretion); type: cell-based, human; conditions: glibenclamide, exendin 4, and KCl
Procedure: Batch-mode GSIS assay was carried out as described below. An aliquot of the obtained human iPS-β cells was washed with LG-KRBH as described above. Then, the cells were incubated for 30 minutes or 1 hour in LG-HKRB buffer and subsequently incubated for the same time thereas in HG-HKRB buffer. In some experiments, after washing of the cells, the cells were dispensed into some aliquots and incubated for 1 hour in HG-HKRB buffer containing 0.01% DMSO or several types of insulin secretagogues. The C-peptide concentration of a sample was measured using alphaLISA C-peptide kit (PerkinElmer, AL299F) or C-peptide ELISA and corrected with the DNA content of the cells used in the GSIS assay.

Compound: O=C1CCC(C(=O)Nc2ncc(-c3ccc(OC(F)(F)F)cc3)s2)n2cccc21 (centres unmarked) [Synthesis Example 9, 8-Oxo-N-[5-[4-(trifluoromethoxy)phenyl]thiazol-2-yl]-6,7-dihydro-5H-indolizine-5-carboxamide]
- differentiation depending on time window of addition ([1]; added in a time window including stage 3): enhance differentiation most effectively
- differentiation into INSULIN+NKX6.1+, NKX6.1+PDX1+ double-positive and INSULIN+NKX6.1+PDX1+ triple-positive cells ([1]; protocol #2, end of stage 4 and later): enhanced differentiation
- production of NKX6.1+ and INSULIN+NKX6.1+ double-positive cells ([1]; treatment particularly in stages 3 to 5): promoted the production
- differentiation into iPS-β cells (INS+ cells) [2]: stronger efficacy than that of the original compound K-1
- differentiation into INSULIN+PDX1+ double-positive cells [3]: enhanced differentiation
- glucose stimulated insulin secretion (GSIS) activity of obtained iPS-β cells [4]: enhanced
- insulin secretion dynamics in step-wise time-course measurement [4]: rapid first-phase insulin secretion and long-lasting second-phase insulin secretion
- c-peptide secretion by stimulation with insulin secretagogues [5]: enhanced c-peptide secretion
